Among the test systems are 786-0 renal; A498 renal; A549 NSCLC; ACHN renal; BT-549 breast; CAKI-1 renal; CCRF-CEM leukemia; COLO 205 colon; DU-145 prostate; EKVX NSCLC; HCC-2998 colon; HCT-116 colon; HCT-15 colon; HL-60(TB) leukemia; HOP-62 NSCLC; HOP-92 NSCLC; HS 578T breast; HT29 colon; IGROV1 ovarian; K-562 leukemia; KM12 colon; LOX IMVI melanoma; M14 melanoma; MALME-3M melanoma; MCF7 breast; MDA-MB-435; MDA-MB-468 breast; MOLT-4 leukemia; NCI-H226 lung; NCI-H23 lung; NCI-H460 lung; NCI-H522 lung; NCI/ADR-RES ovarian; OVCAR-3 ovarian; OVCAR-4 ovarian; OVCAR-5 ovarian; OVCAR-8 ovarian; PC-3 prostate; RPMI-8226 leukemia; RXF 393 renal; SF-268 CNS; SF-295 CNS; SF-539 CNS; SK-MEL-28 melanoma; SK-MEL-5 melanoma; SK-OV-3 ovarian; SN12C renal; SNB-19 CNS; SR leukemia; SW-620 colon; T-47D breast; TK-10 renal; U251 CNS; UACC-257 melanoma; UACC-62 melanoma.

Test in all cases: DTP human tumour cell line panel, 48 h

Where “and” joins values, the source holds several entries; their conditions need not be identical. Equal values may be shown once.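 Results reflect a 48-hour exposure of cells in 96-well plates to compound at five concentrations. Here, GI50 denotes the concentration required for 50% inhibition of growth. TGI is the concentration that stops growth completely.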

A word on the GI50: it is the concentration giving 50% growth inhibition. One may read the TGI as the concentration giving total growth inhibition. As to `O=C(Nc1ccc(I)cc1)Nc1nc2ccc([N+](=O)[O-])cc2s1`, the GI50 in the test on 786-0 renal was 3.5 µM; in the test on A498 renal it was 2.83 µM; in the test on A549 NSCLC, 3.54 µM; in the test on ACHN renal, 3.25 µM; in the test with BT-549 breast, 2.31 µM; in the test on CAKI-1 renal it was 3.32 µM. Further, the GI50 in the test with CCRF-CEM leukemia is 3.4 µM; in the test on COLO 205 colon, 2.64 µM; in the test on DU-145 prostate, 3.99 µM; in the test on EKVX NSCLC, 3.08 µM; with HCC-2998 colon, 3.59 µM; in the test with HCT-116 colon, 2.66 µM. The GI50 in the test with HCT-15 colon is 3.2 µM; with HL-60(TB) leukemia it was 2.41 µM; in the test with HOP-62 NSCLC, 3.44 µM; in the test on HOP-92 NSCLC, 2.03 µM; in the test with HS 578T breast it was 3.01 µM; in the test on HT29 colon it was 3.32 µM. The GI50 was 3.67 µM with IGROV1 ovarian; 3.23 µM with K-562 leukemia; 3.36 µM in the test on KM12 colon; 3.49 µM in the test with LOX IMVI melanoma; 3.62 µM in the test with M14 melanoma; 2.41 µM with MALME-3M melanoma. The GI50 with MCF7 breast is 2.59 µM; in the test on MDA-MB-435, 3.47 µM; with MDA-MB-468 breast, 2.83 µM; with MOLT-4 leukemia it was 2.57 µM; in the test on NCI-H226 lung it was 3.45 µM; with NCI-H23 lung it was 2.23 µM. In addition, the GI50 with NCI-H460 lung is 3.21 µM; in the test on NCI-H522 lung, 2.29 µM; with NCI/ADR-RES ovarian, 2.92 µM; in the test on OVCAR-3 ovarian it was 3.48 µM; in the test on OVCAR-4 ovarian, 3.69 µM; with OVCAR-5 ovarian it was 4.11 µM. Also, the GI50 in the test with OVCAR-8 ovarian is 3.48 µM; in the test with PC-3 prostate, 3.16 µM; in the test with RPMI-8226 leukemia it was 2.07 µM; in the test on RXF 393 renal, 3.53 µM; with SF-268 CNS it was 3.63 µM; in the test with SF-295 CNS it was 2.93 µM. Besides, the GI50 in the test with SF-539 CNS is 3.01 µM; in the test with SK-MEL-28 melanoma, 3.19 µM; in the test with SK-MEL-5 melanoma, 1.93 µM; with SK-OV-3 ovarian it was 2.93 µM; in the test on SN12C renal, 2.86 µM; with SNB-19 CNS, 3.44 µM. Besides, the GI50 was 2.24 µM in the test on SR leukemia; 3.56 µM in the test with SW-620 colon; 2.8 µM in the test with T-47D breast; 3.67 µM in the test with TK-10 renal; 3.23 µM in the test on U251 CNS; 2.83 µM with UACC-257 melanoma. Further, in the test on UACC-62 melanoma, the GI50 is 2.99 µM. Moreover, the TGI in the test with 786-0 renal was 13.4 µM; in the test on A498 renal, 9.14 µM; in the test on A549 NSCLC, 13.5 µM; with ACHN renal, 10.4 µM; in the test on BT-549 breast, 7.29 µM; with CAKI-1 renal it was 12.1 µM. For the same compound, the TGI in the test on CCRF-CEM leukemia amounted to 10.8 µM; with COLO 205 colon it was 6.52 µM; in the test with DU-145 prostate it was 14 µM; in the test with EKVX NSCLC, 10.9 µM; in the test with HCC-2998 colon it was 12.3 µM; with HCT-116 colon, 11 µM. In addition, the concentration for total growth inhibition (TGI) with HCT-15 colon amounted to 11.2 µM; in the test with HL-60(TB) leukemia, 6.05 µM; with HOP-62 NSCLC, 12.5 µM; in the test on HOP-92 NSCLC it was 6.28 µM; in the test with HS 578T breast it was 9.9 µM; in the test on HT29 colon, 13.4 µM. In addition, the TGI in the test with IGROV1 ovarian was 14 µM; in the test with K-562 leukemia, 10.9 µM; in the test with KM12 colon, 11.6 µM; in the test with LOX IMVI melanoma it was 11.7 µM; in the test with M14 melanoma, 13.2 µM; in the test on MALME-3M melanoma, 6.89 µM. Besides, the total growth inhibition concentration (TGI) in the test on MCF7 breast came out at 7.79 µM; in the test on MDA-MB-435, 12.5 µM; in the test on MDA-MB-468 breast it was 7.4 µM; in the test on MOLT-4 leukemia it was 7.12 µM; in the test with NCI-H226 lung it was 13 µM; in the test on NCI-H23 lung, 5.85 µM. The TGI in the test with NCI-H460 lung stood at 10.4 µM; in the test on NCI-H522 lung, 6.75 µM; in the test with NCI/ADR-RES ovarian it was 9.27 µM; in the test with OVCAR-3 ovarian, 12.6 µM; in the test on OVCAR-4 ovarian, 14.5 µM; in the test on OVCAR-5 ovarian, 15.9 µM. Besides, the TGI with OVCAR-8 ovarian worked out at 11.8 µM; in the test on PC-3 prostate, 11.4 µM; in the test with RPMI-8226 leukemia it was 5.23 µM; in the test on RXF 393 renal, 12.9 µM; in the test on SF-268 CNS, 14.6 µM; in the test on SF-295 CNS, 10.6 µM. The TGI with SF-539 CNS came out at 9.39 µM; in the test with SK-MEL-28 melanoma, 10.7 µM; in the test with SK-MEL-5 melanoma it was 3.9 µM; with SK-OV-3 ovarian it was 9.16 µM; in the test on SN12C renal it was 9.42 µM; with SNB-19 CNS, 12.9 µM. Further, the TGI in the test with SR leukemia was 5.84 µM; in the test on SW-620 colon, 13.1 µM; with T-47D breast, 8.71 µM; with TK-10 renal it was 11.7 µM; with U251 CNS, 10.7 µM; in the test with UACC-257 melanoma it was 8.24 µM. In addition, the TGI in the test with UACC-62 melanoma was determined as 10.3 µM.

Turning to `COc1ccc(NC(=O)c2sc3nc(C)c(C(=O)/C=C/c4ccccc4)cc3c2N)cc1`, in the test on MDA-MB-468 breast, the GI50 was 0.92 µM and the TGI amounted to 2.03 µM.

`COc1cnc2c(c1)C(=O)c1c-2n(CCCNCC2CC2)c(=O)c2cc(F)ccc12`: in the test with MDA-MB-468 breast, the GI50 was 0.316 µM and the TGI worked out at 0.904 µM.

Consider `COc1ccc2oc(=O)cc(C3c4ccc([nH]4)C(c4cc(=O)oc5ccc(OC)cc45)c4ccc([nH]4)C(c4cc(=O)oc5ccc(OC)cc45)c4ccc([nH]4)C(c4cc(=O)oc5ccc(OC)cc45)c4ccc3[nH]4)c2c1` (configuration not stated), for which, in the test with MDA-MB-468 breast, the GI50 is 0.401 µM and the total growth inhibition concentration (TGI) stood at 1.91 µM.

Consider `CO/N=C/C=C\C(=O)N/C=C/C[C@H]1/C=C/[C@H](O)/C=C\C=C\c2cccc(O)c2C(=O)O1`, for which, in the test on MDA-MB-468 breast, the GI50 was 0.286 µM and 0.187 µM; the concentration for total growth inhibition (TGI) is 29.9 µM and 17.5 µM.

Consider `NCCOc1ncccc1/C=C1\C2C=CC=CC2C2C=CC(F)=CC12` (configuration not stated), for which, in the test on MDA-MB-468 breast, the GI50 was 0.483 µM and the TGI came to 2.01 µM.

In the case of `COc1ccc(C(=O)/C=C/c2ccc(OCc3ccc(Cl)cc3)cc2)cc1OC`, in the test with MDA-MB-468 breast, the GI50 is 40.6 µM and the TGI was found to be 271 µM.

Turning to `COC(=O)N1c2ccc3c(nc(Cc4ccccc4)n3[C@H]3CCC[C@H](C(=O)O)C3)c2CC[C@@H]1C`, in the test with MDA-MB-468 breast, the GI50 is 3.82 µM and the TGI is more than 100 µM.

Turning to `COc1cc(C(=O)/C=C/c2cc(-c3cc(OC)c(OC)c(OC)c3)n[nH]2)cc(OC)c1OC`, in the test on MDA-MB-468 breast, the GI50 was 1.15 µM and the TGI amounted to 2.48 µM.

As to `O=C(CCl)Nc1ccc2c(Nc3cc(O)ccc3Cl)ncnc2c1`, in the test with MDA-MB-468 breast, the GI50 was 2.29 µM and the TGI was 7.68 µM.

For `Cc1ccncc1N1CCN(c2ccnc(Cl)c2)C1=O`, in the test on MDA-MB-468 breast, the GI50 is more than 100 µM and the TGI was more than 100 µM.

On to `COc1ccc(C(=O)NCCNc2nccc(-c3c(-c4ccc(F)cc4)nc4sccn34)n2)cc1`, for which, in the test on MDA-MB-468 breast, the GI50 is 4.74 µM and the TGI was determined as 41 µM.

Regarding `CCCOc1cc2c(cc1O)CC[C@@H]1[C@@H]2CC[C@]2(C)[C@@H](O)CC[C@@H]12`, in the test on MDA-MB-468 breast, the GI50 was 2.8 µM and the TGI is 16.7 µM.

Consider `COc1ccc2[nH]c(C(=O)N3CCN(C(=O)OCc4ccc5c(Br)cc(Br)c(O)c5n4)CC3)cc2c1`, for which, in the test with MDA-MB-468 breast, the GI50 is 0.209 µM and the total growth inhibition concentration (TGI) came out at 0.506 µM.

With `C=CCCCC(=O)CCC(=O)OCC1O[C@@H](O[C@@H]2C(O)[C@@H](OC(C)=O)C(C)O[C@H]2O[C@H](CC=C)CCCCC)C(O)[C@@H](OC(=O)/C(C)=C/C)[C@@H]1OC(=O)/C=C/c1ccccc1` (some centres not stated), in the test with MDA-MB-468 breast, the GI50 was 0.0321 µM and the concentration for total growth inhibition (TGI) amounted to 1.22 µM.

Consider `Cn1ccnc1C(=O)/C=C/c1ccc(C(=O)Nc2ccccc2F)cc1`, for which, in the test on MDA-MB-468 breast, the GI50 is 2.49 µM and the TGI was 8.3 µM.

Consider `COc1ccc2nc(NC(=O)COc3cc(/C=C\c4cc(OC)c(OC)c(OC)c4)ccc3OC)sc2c1`, for which, in the test on MDA-MB-468 breast, the GI50 is 2.29 µM and the TGI was determined as 8.37 µM.
